Entries after “also recorded” stand apart in the source; their conditions may differ.
What was measured:
WEHI-164.13 cells = assay: CTL generation in tumor-bearing mice (MLTC); type: in vivo, mouse; design: CTL activity: key to the marks not given beside the values; conditions: 20 mg/kg/day
Experimental: BALB/c mice received SC implants of syngeneic WEHI-164.13 fibrosarcoma cells on day 0. […] On day 17, the animals were sacrificed and their spleens were removed. The spleen cells were assayed in vitro for responses to alloantigens and mitogens.
The spleen cells were also assayed for the generation of WEHI-164.13-specific cytotoxic T-lymphocytes (CTL) in the mixed lymphocyte tumor cell culture (MLTC). Spleen cells from untreated tumor-bearing animals mounted a vigorous CTL response (44% specific lysis at E:T=50:1). This response was inhibited almost completely in animals receiving the vehicle alone (13% specific lysis). […] (Walia, et al., Proc. Soc. Exp. Biol. Med., 192:177-200, 1989.)

[1] = LD50 of A10 in BALB/c mice; conditions: mouse, in vivo, ip
Experimental: All animals wee observed for 7 to 14 days after the last dose was administered. The LD50 was calculated from a plot of % mortality versus dose (log M) using a four parameter logistic equation.

[2] = tested on: epidermal growth factor (EGF) receptor; conditions: listed as leflunomide; cited from earlier work
[3] = tested on: 7TD1 (B-cell hybridoma) cells; assay: Survival, IP 7TD1 B-cell hybridoma in C57BL/6 mice; type: in vivo, mouse
Experimental: Cell lines were grown in the appropriate media as described in Appendix 1. Cells were harvested and washed in sterile PBS or medium without FBS, resuspended to a suitable concentration, and injected into the IP cavity of […] of the appropriate strain. Prior to implantation of 7TD1 cells, C57BL/6 mice were primed by IP injection of 0.5 mL Pristane. SKOV3T cells were implanted into athymic mice without Pristane priming. Mice were observed daily for the occurrence of ascites formation. Individual animals were sacrificed when they presented with a weight gain of 40%, or when the IP tumor burden began to cause undue stress and pain to the animal.
All animals in the control group died by day 9, while 3 of 8 animals in the A10-treated group survived past day 80.

D1B leukemia = assay: SC syngeneic leukemia model in mice; type: in vivo, murine; conditions: DBA/2, 20 mg/kg/day, day 22
Experimental: (§1) Cell lines were grown in appropriate medium (see Appendix 1). Cells were harvested at or near confluency with 0.05% Trypsin-EDTA and pelleted at 450×g for 10 min. Pellets were resuspended in sterile PBS or media (without FBS) to a particular concentration and the cells were implanted into the hindflank of mice. Tumor growth was measured over 3 to 6 weeks using venier calipers. Tumor volumes were calculated as a product of length×width×height unless otherwise indicated. P values were calculated using the Students' t-test.

C6 cells [4] = assay: CTL generation in tumor-bearing rats (MLTC); type: in vivo, rat; conditions: 8.4 mg/kg/day
Experimental: Wistar rats received SC implants of C6 cells on day 0. […] The control group was not treated after tumor implantation. On day 21, the animals were sacrificed and the spleens were removed for in vitro analyses. Splenocytes were stimulated with ConA, LPS, and alloantigen (DA rat spleen cells) as in the murine studies.
The spleen cells from Wistar rats were also assayed for the generation of C6-specific CTL in the MLTC and the results summarized in Table XXI. Spleen cells from tumor-bearing, untreated animals mounted a vigorous CTL response (35% specific lysis at E:T=100:1), while cells from non-tumor bearing control rats mounted a weak response (13% specific lysis at E:T=100:1). Similar to the studies in BALB/c mice, it appeared that the vehicle inhibited the generation of CTL in a 7-day culture.

SF767T cells = assay: Soft agar assay (SAA); type: cell-based; conditions: Homo sapiens; PDGF-R expression ++
Experimental: (§2) After a 2 to 3 week incubation at 37° C., colonies larger than 50 μm were quantified using an Omnicon 3800 Tumor Colony counter.
(§3) PDGF-R expression was measured qualitatively using a western blot.

SKOV-3T cells = assay: Soft agar assay (SAA); type: cell-based; conditions: Homo sapiens; PDGF-R expression ++
Experimental: as §2, §3

C6 cells [5] = assay: Soft agar assay (SAA); type: cell-based; conditions: Rattus norvegicus, PDGF-R expression ++
Experimental: as §2, §3

SKOV-3 cells = assay: Soft agar assay (SAA); type: cell-based; conditions: Homo sapiens, SK-OV-3; PDGF-R expression -
Experimental: as §2, §3

A431 epidermoid tumor = assay: SC xenograft in mice; type: in vivo, human
Experimental: as §1
(§4) C6 and SKOV-3(T) cells were grown in culture, as described in "cell growth" above, and implanted into the hind flank of a female Balb/c nu/nu mouse at 3×10^6 cells (for C6 experiments), or 1×10^7 cells (for SKOV-3 experiments) in […] of PBS on Day 0. U87MG, U118MG or U373MG human glioblastoma cells (obtained from the ATCC), or A4312 were also implanted into athymic mice. […] Tumors were measured using venier calipers and tumor volume was calculated as a product of tumor length, width, and height.

U87MG glioblastoma = assay: SC xenograft in mice; type: in vivo, human
Experimental: as §1, §4

U118 glioblastoma = assay: SC xenograft in mice; type: in vivo, human; conditions: 15 mg/kg
Experimental: as §1, §4

U373MG glioblastoma = assay: SC xenograft in mice; type: in vivo, human
Experimental: as §1, §4

SKOV3T ovarian tumor = assay: SC xenograft in mice; type: in vivo, human
Experimental: as §1, §4

[6] = mice xenotransplanted with human ovarian cancer cells

Cc1oncc1C(=O)Nc1ccc(C(F)(F)F)cc1 [Compound A10, 5-methylisoxazole-4 carboxylic acid-(4-trifluromethyl)-anilide]
CTL response, specific lysis (WEHI-164.13 cells; vehicle 13%, untreated 44%): 78% | CTL activity (WEHI-164.13 cells; Tumor stimulus): ++ | LD50 [1]: 94 mg/kg | autophosphorylation of the EGF receptor [2]: dose dependently, inhibited; also recorded: inhibit EGF induced EGF receptor autophosphorylation | survival ([3]; 15 mg/kg/day IP in DMSO): significantly increase the survival | animals surviving ([3]; 15 mg/kg/day IP in DMSO 30 days, past day 80): 3 of 8 | % Inhibition (D1B leukemia): 95% | CTL generation (C6 cells [4]): did not overcome the inhibitory effect of the vehicle in immunocompetent rats | CTL activity (C6 cells [4]; Tumor stimulus): 0 | IC50 (SF767T cells): 500 to 2000 nM | IC50 (SKOV-3T cells): 300 nM | IC50 (C6 cells [5]): 400 nM | IC50 (SKOV-3 cells): 6300 nM | effect on A431 tumor growth (A431 epidermoid tumor; 15 mg/kg/day, DMSO): no more than 25% | growth of xenograft (A431 epidermoid tumor; 12 to 20 mg/kg/day): did not significantly inhibit the growth of xenotransplanted cells expressing EGF receptor; also recorded: failed to significantly inhibit the growth | % Inhibition (A431 epidermoid tumor; nu/nu, 15 mg/kg/day, day 15): 40% | % Inhibition (U87MG glioblastoma; 5 mg/kg): 52% | % Inhibition (U87MG glioblastoma; 10 mg/kg): 58% | % Inhibition (U87MG glioblastoma; 15 mg/kg): 66% | % Inhibition (U87MG glioblastoma; 20 mg/kg): 92% | % Inhibition (U118 glioblastoma): 57% | % Inhibition (U373MG glioblastoma; 15 mg/kg): 54% | % Inhibition (U373MG glioblastoma; nu/nu, 15 mg/kg/day, day 37): 54% | inhibition in tumor growth (SKOV3T ovarian tumor; 15 mg/kg/day (DMSO), after 20 days): greater than 90% | cytotoxicity or mortality (SKOV3T ovarian tumor; [6]): without significant cytotoxicity or mortality | ovarian tumor growth (SKOV3T ovarian tumor; [6]): nearly complete inhibition of ovarian tumor growth | % Inhibition (SKOV3T ovarian tumor; nu/nu, 15 mg/kg/day, day 21): 94% | In Vivo inhibition (SKOV3T ovarian tumor; xenografted athymic mice): 95%

From patent US6331555A, “Treatment of platelet derived growth factor related disorders such as cancers” (priority 1999, dated 2001)
